Values quoted from earlier work as cited in patent US20100055173A1, “RELEASE OF STATINS IN THE INTESTINE” (priority 2006, published 2010).
Where two headings read alike, the source gives them in different places.

Assays:
[1] = target: T1, HMG-CoA reductase (Homo sapiens, UniProt P04035); details: considering the beta-hydroxy acid form as the drug
T1 sequence (P04035 1-888): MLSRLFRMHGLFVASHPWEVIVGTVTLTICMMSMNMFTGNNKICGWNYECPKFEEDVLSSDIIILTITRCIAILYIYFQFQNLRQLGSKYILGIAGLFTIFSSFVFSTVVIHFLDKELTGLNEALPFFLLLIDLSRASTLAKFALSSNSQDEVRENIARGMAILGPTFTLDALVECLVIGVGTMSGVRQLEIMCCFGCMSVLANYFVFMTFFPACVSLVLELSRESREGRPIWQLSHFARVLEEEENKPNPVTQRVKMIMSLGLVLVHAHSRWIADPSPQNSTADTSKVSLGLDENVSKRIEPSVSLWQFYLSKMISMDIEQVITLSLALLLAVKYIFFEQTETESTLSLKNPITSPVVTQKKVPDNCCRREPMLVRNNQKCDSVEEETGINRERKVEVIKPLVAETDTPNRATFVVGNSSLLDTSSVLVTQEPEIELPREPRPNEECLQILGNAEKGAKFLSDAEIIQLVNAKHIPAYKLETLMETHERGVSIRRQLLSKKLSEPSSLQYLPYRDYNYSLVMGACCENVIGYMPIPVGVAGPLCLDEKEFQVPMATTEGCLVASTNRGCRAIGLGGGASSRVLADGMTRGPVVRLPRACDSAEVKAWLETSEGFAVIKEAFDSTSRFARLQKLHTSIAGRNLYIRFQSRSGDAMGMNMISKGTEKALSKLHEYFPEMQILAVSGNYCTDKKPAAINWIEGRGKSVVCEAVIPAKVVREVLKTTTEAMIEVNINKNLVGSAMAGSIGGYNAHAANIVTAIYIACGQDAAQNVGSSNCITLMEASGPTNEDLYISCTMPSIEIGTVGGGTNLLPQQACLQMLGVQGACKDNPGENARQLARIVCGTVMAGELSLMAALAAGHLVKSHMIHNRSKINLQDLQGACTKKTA

[2] = system: plasma proteins; details: primarily to albumin

**Q.** With `CCC(C)(C)C(=O)OC1CC(C)(O)C=C2C=CC(C)C(CCC3CC(O)CC(=O)O3)C21` (stereo not drawn) [6-beta-hydroxy simvastatin] as the compound, how does the “HMG-CoA reductase activity retained” value [1] read?
**A.** ~50%

**Q.** Which “HMG-CoA reductase activity retained” value [1] does the source give for `CCC(C)(C)C(=O)O[C@H]1C[C@@H](CO)C=C2C=C[C@H](C)[C@H](CC[C@@H]3C[C@@H](O)CC(=O)O3)[C@H]21` [6-beta-hydroxymethyl, 6-beta-hydroxymethyl simvastatin] here?
**A.** approximately 40%

**Q.** With `CCC(C)(C)C(=O)O[C@H]1C[C@@H](C)C=C2C=C[C@H](C)[C@H](CC[C@@H](O)C[C@@H](O)CC(=O)O)[C@H]21` [open hydroxyl acid form, β-hydroxyacid-simvastatin] as the compound, how does the “bound to plasma proteins” value [2] read?
**A.** 94.5%

**Q.** For `CCC(C)(C)C(=O)O[C@H]1C[C@@H](C)C=C2C=C[C@H](C)[C@H](CC[C@@H]3C[C@@H](O)CC(=O)O3)[C@H]21` [simvastatin], which “bound to plasma proteins” value [2] is on record?
**A.** More than 98%

**Q.** What about the “bound to plasma proteins” value ([2]; listed as Simvastatin) of the same compound?
**A.** more than 95%
